Data published in PMC8351955, “Targeting Mycobacterium tuberculosis response to environmental cues for the development of effective antitubercular drugs” (PLoS Biology, 2021).
Several values for one entry are separate records, joined by “and”; a condition that tells them apart may be missing. Equal values may be shown once. Read-outs that look alike come from different tables or passages of the source.

How the values were obtained:
Mtb [1] = assay: Mtb growth assay in standard 7H9 medium (OD600); conditions: Fig. 2F
Source text: (§1) Bacterial growth was tracked by measuring OD600 every 3 days for 12 days. […] Bacterial growth was tracked by measurement of OD600 every 3 days over 12 days.

[2] = test system: WT Mtb (Erdman) in primary murine BMDMs; assay: Primary murine bone marrow-derived macrophage infection, CFU; type: cell-based, Mycobacterium tuberculosis; conditions: for Effect on bacterial load / Mtb growth in primary murine BMDMs: 10 μM, 8-day infection time course, vs DMSO; for CFU/ml: Fig. 2E, 10 µM
Procedure: C57BL/6J wild-type mice (Jackson Laboratories) were used for extraction of BMDMs. Cells were harvested and expanded in DMEM containing 10% FBS, 15% L-cell conditioned media, 2 mM L-glutamine, 1 mM sodium pyruvate, and penicillin/streptomycin as needed in a 37°C incubator in a 5% CO2 atmosphere. […] Macrophages were lysed with water containing 0.01% sodium dodecyl sulfate and a dilution series of the samples plated on 7H10 agar for CFU determination.

Mtb [3] = assay: Mtb growth assay in cholesterol medium (OD600); conditions: for Inhibition of Mtb growth in cholesterol media: 10 μM, OD600 over 12 days; for OD600: Fig. 2G
Source text: as §1

Mtb-infected J774 cells = conditions: for Accumulation in Mtb-infected J774 cells: 10 μM, 24 hours, 5 days post-infection; for nmol/106 cells: Fig. 3F
[4] = test system: Mtb growth in J774 macrophage-like cells; assay: J774 infection in 96-well plates, mKO fluorescence 6 days post-infection; type: cell-based, Mycobacterium tuberculosis; conditions: for Inhibition of Mtb growth in J774 cells: 10 μM, 6 days post-infection; for % Growth: Fig. 2D, DMSO = 100
Procedure: For J774 infection in 96-well plates, 1.8 × 10^5 J774 cells were seeded per well in 180 μl of J774 infection media 1 day prior to infection. On the day of the assay, log-phase Mtb constitutively expressing mKO were pelleted and resuspended in 1 ml basal uptake buffer, passed 6× through a tuberculin syringe with a 25 G × 5/8″ needle, then resuspended in J774 infection media to a final OD600 = 0.2. Media was removed from 96-well plate containing the J774 cells, with 140 μl of fresh J774 infection media added back to each well. A volume of 40 μl of the Mtb suspension at OD600 = 0.2 was added to each well, followed by addition of appropriate concentration of compound or DMSO in a 20-μl final volume in J774 infection media (compound final concentration 10 μM, rifampicin final concentration 5 μM, DMSO final concentration 0.1%/well). Bacterial mKO fluorescence was read immediately after infection using a Biotek Synergy Neo2 microplate reader (bottom read monochromator, excitation 543/10 nm, emission 565/10 nm), and again 6 days post-infection. Plates were kept in humidified ziplock bags in a 37°C, 5% CO2 incubator. mKO fluorescence in DMSO-treated control samples were defined as 100% growth, and fluorescence observed in treatment conditions calculated as a percentage from that set value.

Mtb CDC1551 = assay: Intrabacterial drug accumulation assay (LC-MS); conditions: 24-hour exposure, 7H9 pH 7 ± 250 mM NaCl
[5] = test system: CDC1551(rv2390c′::GFP) reporter Mtb strain; conditions: for Normalized % induction: Fig. 2C, DMSO = 100; for Ability to increase rv2390c′::GFP reporter signal in high [Cl−]: pH 7
J774 cells = assay: Intracellular drug accumulation assay in J774 cells (LC-MS); conditions: for Intracellular accumulation in J774 cells: 24 hours; for nmol/106 cells: Fig. 3F

Structure (SMILES) | OD600 (Mtb [1]; day 3, average) | OD600 (Mtb [1]; day 3, individual replicates) | OD600 (Mtb [1]; day 6, average) | OD600 (Mtb [1]; day 6, individual replicates) | OD600 (Mtb [1]; day 9, average) | OD600 (Mtb [1]; day 9, individual replicates) | OD600 (Mtb [1]; day 12, average) | OD600 (Mtb [1]; day 12, individual replicates) | Inhibition of Mtb growth in cholesterol media (Mtb [3]) | OD600 (Mtb [3]; day 3, average) | OD600 (Mtb [3]; day 3, individual replicates) | OD600 (Mtb [3]; day 6, average) | OD600 (Mtb [3]; day 6, individual replicates) | OD600 (Mtb [3]; day 9, average) | OD600 (Mtb [3]; day 9, individual replicates) | OD600 (Mtb [3]; day 12, average) | OD600 (Mtb [3]; day 12, individual replicates) | Inhibition of Mtb growth in J774 cells [4] | % Growth ([4]; average of 4 replicates) [%] | % Growth ([4]; individual replicates) | also measured
COc1ncc(CN2CCN(c3nc4ccccc4o3)CC2)cn1 [JSF-4271, 2-(4-((2-methoxypyrimidin-5-yl)methyl)piperazin-1-yl)benzo[d]oxazole] | 0.2 | 0.2 and 0.22 and 0.18 | 0.4067 | 0.42 (2×) and 0.38 | 0.5267 | 0.54 (2×) and 0.5 | 0.6733 | 0.68 (2×) and 0.66 | no longer inhibited Mtb growth | 0.1 | 0.1 | 0.28 | 0.3 (2×) and 0.24 | 0.4467 | 0.46 (2×) and 0.42 | 0.52 | 0.52 and 0.5 and 0.54 | loss of the ability to inhibit Mtb growth | 107.949 | 101.522% and 116.46% and 111.935% and 101.878% | Effect on bacterial load / Mtb growth in primary murine BMDMs [2]: loss of the ability to inhibit Mtb growth; CFU/ml ([2]; day 2, average): 489333 CFU/ml; CFU/ml ([2]; day 2, individual replicates): 446000 CFU/ml and 482000 CFU/ml and 540000 CFU/ml; CFU/ml ([2]; day 4, average): 960000 CFU/ml; CFU/ml ([2]; day 4, individual replicates): 1040000 CFU/ml and 1100000 CFU/ml and 740000 CFU/ml; CFU/ml ([2]; day 6, average): 2286667 CFU/ml; CFU/ml ([2]; day 6, individual replicates): 1960000 CFU/ml and 2060000 CFU/ml and 2840000 CFU/ml; CFU/ml ([2]; day 8, average): 6800000 CFU/ml; CFU/ml ([2]; day 8, individual replicates): 6000000 CFU/ml and 5400000 CFU/ml and 9000000 CFU/ml; Accumulation in Mtb-infected J774 cells (Mtb-infected J774 cells): minimal accumulation; Intrabacterial accumulation in Mtb (Mtb CDC1551): decreased accumulation; Normalized % induction ([5]; average of 3 replicates): 98.3426%; Normalized % induction ([5]; individual replicates): 93.208% and 98.8641% and 102.956%; Ability to increase rv2390c′::GFP reporter signal in high [Cl−] [5]: lost the ability; Intracellular accumulation in J774 cells (J774 cells): minimal accumulation
c1ccc2oc(N3CCN(Cc4cncnc4)CC3)nc2c1 [JSF-4297, 2-(4-(pyrimidin-5-ylmethyl)piperazin-1-yl)benzo[d]oxazole] | 0.1933 | 0.18 (2×) and 0.22 | 0.4 | 0.4 and 0.42 and 0.38 | 0.5467 | 0.56 (2×) and 0.52 | 0.7 | 0.7 and 0.72 and 0.68 | no longer inhibited Mtb growth | 0.09333 | 0.1 (2×) and 0.08 | 0.3133 | 0.32 (2×) and 0.3 | 0.4533 | 0.46 (2×) and 0.44 | 0.5 | 0.48 and 0.5 and 0.52 | loss of the ability to inhibit Mtb growth | 108.514 | 102.242% and 116.384% and 110.602% and 104.828% | Effect on bacterial load / Mtb growth in primary murine BMDMs [2]: loss of the ability to inhibit Mtb growth; nmol/106 cells (Mtb-infected J774 cells; Experiment 1 - Mtb-infected J774, average): 0.006771 nmol/106 cells; nmol/106 cells (Mtb-infected J774 cells; Experiment 1 - Mtb-infected J774, individual replicates): 0.007341 nmol/106 cells and 0.006486 nmol/106 cells (2×); nmol/106 cells (Mtb-infected J774 cells; Experiment 2 - Mtb-infected J774, average): 0.007288 nmol/106 cells; nmol/106 cells (Mtb-infected J774 cells; Experiment 3 - Mtb-infected J774, average): 0.039 nmol/106 cells; nmol/106 cells (Mtb-infected J774 cells; Experiment 3 - Mtb-infected J774, individual replicates): 0.03001 nmol/106 cells and 0.048 nmol/106 cells; Normalized % induction ([5]; average of 3 replicates): 100.379%; Normalized % induction ([5]; individual replicates): 88.9158% and 107.146% and 105.074%; Ability to increase rv2390c′::GFP reporter signal in high [Cl−] [5]: lost the ability; Intracellular accumulation in J774 cells (J774 cells): no detectable accumulation; nmol/106 cells (J774 cells; Experiment 1 - J774, average): 0 nmol/106 cells; nmol/106 cells (J774 cells; Experiment 1 - J774, individual replicates): 0 nmol/106 cells; nmol/106 cells (J774 cells; Experiment 2 - J774, average): 0 nmol/106 cells; nmol/106 cells (J774 cells; Experiment 2 - J774, individual replicates): 0 nmol/106 cells; nmol/106 cells (J774 cells; Experiment 3 - J774, average): 0 nmol/106 cells; nmol/106 cells (J774 cells; Experiment 3 - J774, individual replicates): 0 nmol/106 cells
CCSc1ccc(CN2CCN(c3nc4ccccc4o3)CC2)cc1 [JSF-4300, 2-(4-(4-(ethylthio)benzyl)piperazin-1-yl)benzo[d]oxazole] | 0.1733 | 0.18 (2×) and 0.16 | 0.3867 | 0.38 (2×) and 0.4 | 0.4933 | 0.48 (2×) and 0.52 | 0.6467 | 0.64 (2×) and 0.66 | continuing to demonstrate the phenotypes seen with the parental C6 compound | 0.06 | 0.06 | 0.09333 | 0.1 (2×) and 0.08 | 0.1333 | 0.14 (2×) and 0.12 | 0.16 | 0.16 and 0.14 and 0.18 | continuing to demonstrate the phenotypes seen with the parental C6 compound | 60.6248 | 59.61% and 62.908% and 58.5309% and 61.4502% | CFU/ml ([2]; day 2, average): 472667 CFU/ml; CFU/ml ([2]; day 2, individual replicates): 482000 CFU/ml and 478000 CFU/ml and 458000 CFU/ml; CFU/ml ([2]; day 4, average): 660000 CFU/ml; CFU/ml ([2]; day 4, individual replicates): 620000 CFU/ml and 660000 CFU/ml and 700000 CFU/ml; CFU/ml ([2]; day 6, average): 806667 CFU/ml; CFU/ml ([2]; day 6, individual replicates): 740000 CFU/ml (2×) and 940000 CFU/ml; CFU/ml ([2]; day 8, average): 966667 CFU/ml; CFU/ml ([2]; day 8, individual replicates): 1080000 CFU/ml and 800000 CFU/ml and 1020000 CFU/ml; Accumulation in Mtb-infected J774 cells (Mtb-infected J774 cells): robust accumulation; Intrabacterial accumulation in Mtb (Mtb CDC1551): robust accumulation; Normalized % induction ([5]; average of 3 replicates): 125.329%; Normalized % induction ([5]; individual replicates): 120.3% and 121.44% and 134.248%; Ability to increase rv2390c′::GFP reporter signal in high [Cl−] [5]: continuing to demonstrate the phenotypes seen with the parental C6 compound; Intracellular accumulation in J774 cells (J774 cells): robust accumulation
